The source of these data is ChEMBL document CHEMBL5260847, “Current scenario of indole derivatives with potential anti-drug-resistant cancer activity” (Eur J Med Chem, 2020).

What is called IC50 is the concentration that gives 50% inhibition.

For series [1], the system named is PC-9. The experiment in a line: Antitumor activity in gefitinib-resistant human PC-9 cells xenografted Sprague-Dawley mouse at 40 mg/kg assessed as tumor growth inhibition administered for 5 days. It counts as functional. More on the design: scale not given: the % may be the effect or the level left. The conditions noted are these: time 5 day.
Series [2] has as its system NCI-H1975. The experiment in a line: Antitumor activity in human NCI-H1975 cells xenografted Sprague-Dawley mouse at 40 mg/kg assessed as tumor growth inhibition administered for 5 days. To be noted: time 5 day. More on the design: scale not given: the % may be the effect or the level left. Format: functional. (In general: Xenograft models place foreign cells or tissue in a host animal.)

The subject of series [3] is NCI-H1650. As to the kind of experiment: Antitumor activity in human NCI-H1650 cells xenografted Sprague-Dawley mouse at 40 mg/kg assessed as tumor growth inhibition administered for 5 days. Format: functional. More on the design: scale not given: the % may be the effect or the level left. To be noted: time 5 day.
Series [4] relates to NCI-H1650. As to the kind of experiment: Cytotoxicity activity against drug-sensitive human NCI-H1650 cells assessed as reduction in cell viability measured after 72 hrs by MTT assay. Format: functional, cell-based. To be noted: NCI-H1650, 72 h. In general terms: Tetrazolium assays rely on reduction of a dye to a coloured formazan, in cell work by metabolically active cells.

The test system of series [5] is CCRF-CEM. The experiment in a line: Cytotoxicity against drug-sensitive human CCRF-CEM cells assessed as reduction in cell viability measured after 72 hrs by MTT assay. It counts as functional, cell-based.
The subject of series [6] is NCI-H460. The experiment in a line: Antitumor activity in human NCI-H460 cells xenografted […] mouse at 40 mg/kg assessed as tumor growth inhibition. Format: functional. Also noted: scale not given: the % may be the effect or the level left.
In series [7] the test system is SW-620. The experiment in a line: Cytotoxicity against human SW620 cells assessed as reduction in cell viability measured after 48 hrs by SRB assay. It counts as functional, cell-based. The conditions noted are these: SW-620, 48 h. A general note: Sulforhodamine B stains cellular protein and so reports cell mass.
Series [8] relates to MCF7. As to the kind of experiment: Cytotoxicity against human MCF7 cells assessed as reduction in cell viability measured after 48 hrs by SRB assay. It counts as functional, cell-based. The conditions noted are these: MCF7, 48 h.
For series [9], the system named is SK-OV-3. As to the kind of experiment: Cytotoxicity against human SK-OV-3 cells assessed as reduction in cell viability measured after 48 hrs by SRB assay. The conditions noted are these: SK-OV-3, 48 h. It counts as functional, cell-based.
Series [10] deals with DLD-1. The experiment in a line: Cytotoxicity against human DLD-1 cells assessed as reduction in cell viability measured after 48 hrs by SRB assay. Format: functional, cell-based. The conditions noted are these: DLD-1, 48 h.
Series [11] deals with A549. The experiment in a line: Antiproliferative activity against multi-drug resistant human A549 cells assessed as reduction in cell viability. Format: functional, cell-based.
Series [12] deals with Epidermoid carcinoma cell line. The experiment in a line: Cytotoxicity activity against vincristine-resistant human Epidermoid carcinoma cell line assessed as reduction in cell growth. It counts as functional, cell-based.
Series [13] deals with KB. The experiment in a line: Cytotoxicity activity against vincristine-resistant human KB cells assessed as reduction in cell growth. It counts as functional, cell-based.
A short description of series [14]: Cytotoxicity against human HUVEC cells assessed as reduction in cell viability incubated for 2 hrs by MTT assay. Format: toxicity, cell-based.
The nature of series [15]: Cytotoxicity against human hypertrophic scar Fibroblast cells assessed as inhibition of cell growth incubated for 2 hrs by MTT assay. It counts as toxicity, cell-based.
Series [16] has as its system KB. The experiment in a line: Antiproliferative activity against human KB cells assessed as reduction in cell growth incubated for 2 days by MTT assay. The conditions noted are these: 48 h. It counts as functional, cell-based.
The subject of series [17] is K562/A02. As to the kind of experiment: Antiproliferative activity against human K562/A02 cells assessed as reduction in cell viability measured after 2 days by MTT assay. Format: functional, cell-based. The conditions noted are these: K562/A02, 48 h.
In series [18] the test system is K562/Adr. As to the kind of experiment: Cytotoxicity activity against doxorubicin-resistant human K562/Adr cells assessed as reduction in cell viability measured after 72 hrs by CCK-8 assay. It counts as functional, cell-based.
The subject of series [19] is K562. The experiment in a line: Antiproliferative activity against human K562 cells assessed as reduction in cell growth measured after 24 hrs by CCK-8 assay. It counts as functional, cell-based. To be noted: K562, 24 h.
The subject of series [20] is K562. As to the kind of experiment: Cytotoxicity activity against […] human K562 cells assessed as reduction in cell viability measured after 72 hrs by CCK-8 assay. It counts as functional, cell-based. To be noted: K562, 72 h.
Series [21] has as its system HT-29. As to the kind of experiment: Cytotoxicity activity against human HT-29 cells assessed as reduction in cell viability by SRB assay. Format: functional, cell-based.
In series [22] the test system is PC-3. The experiment in a line: Cytotoxicity activity against human PC-3 cells assessed as reduction in cell viability by MTT assay. It counts as functional, cell-based.
Series [23] concerns MCF-10A. The experiment in a line: Antiproliferative activity against human MCF-10A cells assessed as reduction in cell viability measured after 48 hrs by MTT assay. It counts as functional, cell-based.
The test system of series [24] is H69AR. As to the kind of experiment: Antiproliferative activity against multi-drug resistant human NCI-H69AR assessed as reduction in cell viability. Format: functional, cell-based.
Series [25] relates to HT-29. The experiment in a line: Antiproliferative activity against human HT-29 cells assessed as reduction in cell viability celltiter-Glo assay. Format: functional, cell-based.
The test system of series [26] is ZR-75-1. As to the kind of experiment: Antiproliferative activity against human ZR-75-1 cells assessed as reduction in cell viability celltiter-Glo assay. It counts as functional, cell-based.
In series [27] the test system is HT-29. The experiment in a line: Antiproliferative activity against drug-sensitive human HT-29 cells assessed as reduction in cell viability by MTT assay. It counts as functional, cell-based.
A short description of series [28]: Selectivity index, ratio of IC50 for antiproliferative activity against human MCF-10A cells to IC50 for antiproliferative activity against […] cells by MTT assay. It counts as toxicity, cell-based. The conditions noted are these: MCF-10A cells and IEC-6 cells, read-out: Selectivity Index.
The test system of series [29] is ZR-75-1. The experiment in a line: Antiproliferative activity against multi-drug resistant human ZR-75-1 cells assessed as reduction in cell viability. It counts as functional, cell-based.
For series [30], the system named is H69AR. The experiment in a line: Antiproliferative activity against multidrug resistant human NCI-H69AR assessed as inhibition of cell proliferation by MTT assay. Format: functional, cell-based.
A short description of series [31]: Antiproliferative activity against human KB-VIN cells assessed as reduction in cell viability measured after 72 hrs by SRB assay. Format: functional, cell-based. To be noted: KBVIN.
Series [32] concerns A549. The experiment in a line: Antiproliferative activity against human A549 cells assessed as inhibition of cell growth measured after 72 hrs by SRB assay. Format: functional, cell-based. The conditions noted are these: A549, 72 h.
For series [33], the system named is MCF7. As to the kind of experiment: Antiproliferative activity against human MCF7 cells assessed as inhibition of cell proliferation incubated for 72 hrs by MTT assay. Format: functional, cell-based. To be noted: MCF7, 72 h.
For series [34], the system named is A549. As to the kind of experiment: Cytotoxicity activity against human A549 cells assessed as reduction in cell viability by SRB assay. It counts as functional, cell-based.

In the case of `CCc1c(CO)c(CO)c2n1Cc1c(c3ccccc3n1C)C2`, the Activity in series [1] was 73%; in series [2], 26%; in series [3] it was 30%; in series [6], 65%. The values for the IC50 in series [4] and in series [5] were 3.5 µM and 0.41 µM, respectively.
With `COc1ccc(C(=O)/C=C/c2nccc3c2[nH]c2ccccc23)cc1OC`, the IC50 in series [7] was 10 µM; in [8], 1.25 µM; in [9], 5 µM; in [10], 2.5 µM.
With `CCOC(=O)c1c(-c2ccc(F)cc2)oc2ccc(OCCCCCCN3C(=O)C(=O)c4cc(OC)ccc43)cc12`, the IC50 in [11] turned out to be 76.9 µM.
The same measure, in the same setting: then `CCOC(=O)c1c(-c2ccccc2)oc2ccc(OCCCCCCN3C(=O)C(=O)c4ccccc43)cc12`, with 47.6 µM.
For `CC[C@@]12CC(C(=O)OC)=C3N=C4C(=CC(=O)C(O)=C4OC)[C@@]34CCN([C@@H]3c5cc6c(cc5O[C@@H]3[C@H]1O)NC1=C(C(=O)OC)C[C@]3(CC)[C@@H]5O[C@@H]5CN5CC[C@@]16[C@@H]53)[C@H]42`, the IC50 was determined as 2.9 µM in series [12] and 0.01 µM in [13].
In the case of `COc1ccc2[nH]cc(C(=O)C(=O)N[C@@H]3c4cc5c(cc4[C@@H](c4cc(OC)c(OC)c(OC)c4)[C@H]4C(=O)OC[C@@H]43)OCO5)c2c1`, the IC50 at 2 h in series [14] is 15.1 µM; in [15] it was 26.1 µM. Besides, the IC50 in [16] is 1.01 µM; in series [17], 4.71 µM.
As to `COc1cc([C@@H]2c3cc4c(cc3[C@H](OC(=O)c3ccc5cc[nH]c5c3)[C@H]3COC(=O)[C@H]23)OCO4)cc(OC)c1OC`, the IC50 in series [18] is 0.245 µM; in [19] it was 0.043 µM; in series [20] it was 0.019 µM.
Regarding `C/C=C1/CN2[C@H]3C[C@@H]1C(CO)[C@@H]2Cc1c3n(C)c2cc(C[C@H]3[C@@H]4C[C@H]5c6c(c7ccccc7n6C)C[C@@H]([C@@H]4CO[C@]3(C)OC)N5C)c(OC)cc12` (stereo partly drawn), the IC50 in series [21] came to 0.02 µM.
Regarding `C/C=C1\CN2CC[C@@]34c5c(ccc6c5OC5OC[C@@H]7[C@@H](C[C@H]8c9c(c%10ccccc%10n9C)C[C@@H]7N8C)[C@@H]5[C@@H]6C)N(C)[C@H]3[C@@H]2C[C@H]1[C@@H]4C(=O)OC` (stereo partly drawn), the IC50 amounted to 0.3 µM in series [21] and 7.2 µM in series [22].
Turning to `O=C1Nc2ccc(Cl)cc2/C1=N/N=C/c1ccn[nH]1`, the IC50 in series [23] worked out at 3.42 µM; in series [24], 16.6 µM; in [25], 2.75 µM; in series [26], 1.37 µM; in series [27], 5.87 µM; in series [29], 1.37 µM. The IC50 in series [30] turned out to be 16 µM. In addition, in [28], the selectivity ratio was 1.6.
As to `CC[C@@H]1C[C@@H]2CN3CCc4c([nH]c5c([C@H]6CC7[C@]8(O[C@@H]8C)[C@@H]8OC[C@@]7(C(=O)OC)[C@H](Cc7c6[nH]c6ccccc76)N8C)c(OC)ccc45)[C@@](C(=O)OC)(C2)[C@@H]13`, the IC50 in series [31] stood at 2.6 µM; in series [32], 3.1 µM; in series [33], 12.9 µM; in [34], 4.8 µM.
As for `C/C=C1\CN(C)[C@H]2Cc3c([nH]c4ccccc34)[C@@H](c3ccc4[nH]c5c(c4c3OC)CCN3C[C@H]4CC[C@H]5[C@H]3[C@@H]4CC)C[C@H]1[C@@H]2C(=O)OC`, the IC50 turned out to be 0.93 µM in series [21] and 6.8 µM in [34].
